# Laboratory results reported in patent US8192962B2, “Processes for detecting toxic substances” (Daikin Industries, Ltd., priority 2001, dated 2012).
# Test system: Stress protein genes
# Assay: DNA chip mRNA expression in yeast, stress protein genes (Table 6)
# Format: cell-based, Saccharomyces cerevisiae S288C
# Summary of the method: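 Values are treated/untreated fluorescence ratios from a whole-genome yeast DNA chip hybridized over 12 hours at 65° C with Cy3- or Cy5-labelled cDNA from poly(A) mRNA. Log-phase S288C yeast in YPD at 25° C had received a single toxic chemical for two hours, dosed to slow growth without killing.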
smiles,measurement,setting,value
"N#Cc1c(Cl)c(Cl)c(Cl)c(C#N)c1Cl [(9), 2,4,5,6-tetrachloro-1,3-benzenedicarbonitrile]",The level of expressed mRNA in the presence of chemical substance/The level of expressed mRNA in the absence of chemical substance,yeast gene YAL005C,3.9
same,The level of expressed mRNA in the presence of chemical substance/The level of expressed mRNA in the absence of chemical substance,yeast gene YAL015C,4.0
same,The level of expressed mRNA in the presence of chemical substance/The level of expressed mRNA in the absence of chemical substance,yeast gene YBL075C,60.3
same,The level of expressed mRNA in the presence of chemical substance/The level of expressed mRNA in the absence of chemical substance,yeast gene YBL093C,0.7
same,The level of expressed mRNA in the presence of chemical substance/The level of expressed mRNA in the absence of chemical substance,yeast gene YBR044C,0.8
same,The level of expressed mRNA in the presence of chemical substance/The level of expressed mRNA in the absence of chemical substance,yeast gene YBR054W,0.4
same,The level of expressed mRNA in the presence of chemical substance/The level of expressed mRNA in the absence of chemical substance,yeast gene YBR067C,1.7
same,The level of expressed mRNA in the presence of chemical substance/The level of expressed mRNA in the absence of chemical substance,yeast gene YBR072W,29.4
same,The level of expressed mRNA in the presence of chemical substance/The level of expressed mRNA in the absence of chemical substance,yeast gene YBR126C,1.7
same,The level of expressed mRNA in the presence of chemical substance/The level of expressed mRNA in the absence of chemical substance,yeast gene YBR169C,7.0
same,The level of expressed mRNA in the presence of chemical substance/The level of expressed mRNA in the absence of chemical substance,yeast gene YCL035C,1.9
same,The level of expressed mRNA in the presence of chemical substance/The level of expressed mRNA in the absence of chemical substance,yeast gene YCR021C,2.2
same,The level of expressed mRNA in the presence of chemical substance/The level of expressed mRNA in the absence of chemical substance,yeast gene YCR060W,0.7
same,The level of expressed mRNA in the presence of chemical substance/The level of expressed mRNA in the absence of chemical substance,yeast gene YCR083W,1.8
same,The level of expressed mRNA in the presence of chemical substance/The level of expressed mRNA in the absence of chemical substance,yeast gene YDL022W,1.2
same,The level of expressed mRNA in the presence of chemical substance/The level of expressed mRNA in the absence of chemical substance,yeast gene YDL025C,3.6
same,The level of expressed mRNA in the presence of chemical substance/The level of expressed mRNA in the absence of chemical substance,yeast gene YDR033W,0.3
same,The level of expressed mRNA in the presence of chemical substance/The level of expressed mRNA in the absence of chemical substance,yeast gene YDR077W,0.7
same,The level of expressed mRNA in the presence of chemical substance/The level of expressed mRNA in the absence of chemical substance,yeast gene YDR098C,3.7
same,The level of expressed mRNA in the presence of chemical substance/The level of expressed mRNA in the absence of chemical substance,yeast gene YDR155C,1.3
same,The level of expressed mRNA in the presence of chemical substance/The level of expressed mRNA in the absence of chemical substance,yeast gene YDR258C,4.9
same,The level of expressed mRNA in the presence of chemical substance/The level of expressed mRNA in the absence of chemical substance,yeast gene YDR293C,1.2
same,The level of expressed mRNA in the presence of chemical substance/The level of expressed mRNA in the absence of chemical substance,yeast gene YDR436W,3.5
same,The level of expressed mRNA in the presence of chemical substance/The level of expressed mRNA in the absence of chemical substance,yeast gene YDR513W,4.6
same,The level of expressed mRNA in the presence of chemical substance/The level of expressed mRNA in the absence of chemical substance,yeast gene YDR519W,0.5
same,The level of expressed mRNA in the presence of chemical substance/The level of expressed mRNA in the absence of chemical substance,yeast gene YEL030W,2.3
same,The level of expressed mRNA in the presence of chemical substance/The level of expressed mRNA in the absence of chemical substance,yeast gene YEL039C,1.2
same,The level of expressed mRNA in the presence of chemical substance/The level of expressed mRNA in the absence of chemical substance,yeast gene YER042W,6.8
same,The level of expressed mRNA in the presence of chemical substance/The level of expressed mRNA in the absence of chemical substance,yeast gene YER057C,0.6
same,The level of expressed mRNA in the presence of chemical substance/The level of expressed mRNA in the absence of chemical substance,yeast gene YER103W,20.3
same,The level of expressed mRNA in the presence of chemical substance/The level of expressed mRNA in the absence of chemical substance,yeast gene YER125W,0.6
same,The level of expressed mRNA in the presence of chemical substance/The level of expressed mRNA in the absence of chemical substance,yeast gene YFL014W,13.1
same,The level of expressed mRNA in the presence of chemical substance/The level of expressed mRNA in the absence of chemical substance,yeast gene YFL016C,6.4
same,The level of expressed mRNA in the presence of chemical substance/The level of expressed mRNA in the absence of chemical substance,yeast gene YFL020C,1.3
same,The level of expressed mRNA in the presence of chemical substance/The level of expressed mRNA in the absence of chemical substance,yeast gene YFR052W,3.7
same,The level of expressed mRNA in the presence of chemical substance/The level of expressed mRNA in the absence of chemical substance,yeast gene YGL073W,1.9
same,The level of expressed mRNA in the presence of chemical substance/The level of expressed mRNA in the absence of chemical substance,yeast gene YGL115W,1.2
same,The level of expressed mRNA in the presence of chemical substance/The level of expressed mRNA in the absence of chemical substance,yeast gene YGL181W,2.7
same,The level of expressed mRNA in the presence of chemical substance/The level of expressed mRNA in the absence of chemical substance,yeast gene YGR088W,1.5
same,The level of expressed mRNA in the presence of chemical substance/The level of expressed mRNA in the absence of chemical substance,yeast gene YHL028W,0.2
same,The level of expressed mRNA in the presence of chemical substance/The level of expressed mRNA in the absence of chemical substance,yeast gene YHL046C,1.0
same,The level of expressed mRNA in the presence of chemical substance/The level of expressed mRNA in the absence of chemical substance,yeast gene YHR030C,0.6
same,The level of expressed mRNA in the presence of chemical substance/The level of expressed mRNA in the absence of chemical substance,yeast gene YHR057C,2.6
same,The level of expressed mRNA in the presence of chemical substance/The level of expressed mRNA in the absence of chemical substance,yeast gene YHR104W,4.8
same,The level of expressed mRNA in the presence of chemical substance/The level of expressed mRNA in the absence of chemical substance,yeast gene YIL011W,0.0
same,The level of expressed mRNA in the presence of chemical substance/The level of expressed mRNA in the absence of chemical substance,yeast gene YIL033C,2.4
same,The level of expressed mRNA in the presence of chemical substance/The level of expressed mRNA in the absence of chemical substance,yeast gene YIR037W,6.2
same,The level of expressed mRNA in the presence of chemical substance/The level of expressed mRNA in the absence of chemical substance,yeast gene YIR038C,4.6
same,The level of expressed mRNA in the presence of chemical substance/The level of expressed mRNA in the absence of chemical substance,yeast gene YJL128C,2.0
same,The level of expressed mRNA in the presence of chemical substance/The level of expressed mRNA in the absence of chemical substance,yeast gene YJL158C,0.2
same,The level of expressed mRNA in the presence of chemical substance/The level of expressed mRNA in the absence of chemical substance,yeast gene YJL159W,0.5
same,The level of expressed mRNA in the presence of chemical substance/The level of expressed mRNA in the absence of chemical substance,yeast gene YJL165C,2.8
same,The level of expressed mRNA in the presence of chemical substance/The level of expressed mRNA in the absence of chemical substance,yeast gene YJR045C,3.2
same,The level of expressed mRNA in the presence of chemical substance/The level of expressed mRNA in the absence of chemical substance,yeast gene YJR090C,1.9
same,The level of expressed mRNA in the presence of chemical substance/The level of expressed mRNA in the absence of chemical substance,yeast gene YKL161C,1.4
same,The level of expressed mRNA in the presence of chemical substance/The level of expressed mRNA in the absence of chemical substance,yeast gene YKL163W,0.7
same,The level of expressed mRNA in the presence of chemical substance/The level of expressed mRNA in the absence of chemical substance,yeast gene YKL164C,0.4
same,The level of expressed mRNA in the presence of chemical substance/The level of expressed mRNA in the absence of chemical substance,yeast gene YKL210W,3.5
same,The level of expressed mRNA in the presence of chemical substance/The level of expressed mRNA in the absence of chemical substance,yeast gene YKR053C,0.8
same,The level of expressed mRNA in the presence of chemical substance/The level of expressed mRNA in the absence of chemical substance,yeast gene YLL024C,2.8
same,The level of expressed mRNA in the presence of chemical substance/The level of expressed mRNA in the absence of chemical substance,yeast gene YLL026W,11.4
same,The level of expressed mRNA in the presence of chemical substance/The level of expressed mRNA in the absence of chemical substance,yeast gene YLL039C,3.4
same,The level of expressed mRNA in the presence of chemical substance/The level of expressed mRNA in the absence of chemical substance,yeast gene YLL060C,13.0
same,The level of expressed mRNA in the presence of chemical substance/The level of expressed mRNA in the absence of chemical substance,yeast gene YLR006C,1.1
same,The level of expressed mRNA in the presence of chemical substance/The level of expressed mRNA in the absence of chemical substance,yeast gene YLR109W,2.4
same,The level of expressed mRNA in the presence of chemical substance/The level of expressed mRNA in the absence of chemical substance,yeast gene YLR259C,1.8
same,The level of expressed mRNA in the presence of chemical substance/The level of expressed mRNA in the absence of chemical substance,yeast gene YML007W,2.1
same,The level of expressed mRNA in the presence of chemical substance/The level of expressed mRNA in the absence of chemical substance,yeast gene YML070W,4.5
same,The level of expressed mRNA in the presence of chemical substance/The level of expressed mRNA in the absence of chemical substance,yeast gene YMR021C,0.6
same,The level of expressed mRNA in the presence of chemical substance/The level of expressed mRNA in the absence of chemical substance,yeast gene YMR173W,2.7
same,The level of expressed mRNA in the presence of chemical substance/The level of expressed mRNA in the absence of chemical substance,yeast gene YMR186W,2.6
same,The level of expressed mRNA in the presence of chemical substance/The level of expressed mRNA in the absence of chemical substance,yeast gene YNL064C,2.4
same,The level of expressed mRNA in the presence of chemical substance/The level of expressed mRNA in the absence of chemical substance,yeast gene YNL160W,3.5
same,The level of expressed mRNA in the presence of chemical substance/The level of expressed mRNA in the absence of chemical substance,yeast gene YNL241C,3.4
same,The level of expressed mRNA in the presence of chemical substance/The level of expressed mRNA in the absence of chemical substance,yeast gene YNR076W,1.3
same,The level of expressed mRNA in the presence of chemical substance/The level of expressed mRNA in the absence of chemical substance,yeast gene YOL064C,8.7
same,The level of expressed mRNA in the presence of chemical substance/The level of expressed mRNA in the absence of chemical substance,yeast gene YOL161C,0.7
same,The level of expressed mRNA in the presence of chemical substance/The level of expressed mRNA in the absence of chemical substance,yeast gene YOR008C,1.9
same,The level of expressed mRNA in the presence of chemical substance/The level of expressed mRNA in the absence of chemical substance,yeast gene YOR009W,0.4
same,The level of expressed mRNA in the presence of chemical substance/The level of expressed mRNA in the absence of chemical substance,yeast gene YOR010C,0.6
same,The level of expressed mRNA in the presence of chemical substance/The level of expressed mRNA in the absence of chemical substance,yeast gene YOR027W,3.5
same,The level of expressed mRNA in the presence of chemical substance/The level of expressed mRNA in the absence of chemical substance,yeast gene YOR208W,1.5
same,The level of expressed mRNA in the presence of chemical substance/The level of expressed mRNA in the absence of chemical substance,yeast gene YPL059W,2.0
same,The level of expressed mRNA in the presence of chemical substance/The level of expressed mRNA in the absence of chemical substance,yeast gene YPL106C,4.9
same,The level of expressed mRNA in the presence of chemical substance/The level of expressed mRNA in the absence of chemical substance,yeast gene YPL140C,0.9
same,The level of expressed mRNA in the presence of chemical substance/The level of expressed mRNA in the absence of chemical substance,yeast gene YPL194W,9.6
same,The level of expressed mRNA in the presence of chemical substance/The level of expressed mRNA in the absence of chemical substance,yeast gene YPL223C,29.4
same,The level of expressed mRNA in the presence of chemical substance/The level of expressed mRNA in the absence of chemical substance,yeast gene YPL240C,3.5
same,The level of expressed mRNA in the presence of chemical substance/The level of expressed mRNA in the absence of chemical substance,yeast gene YPR005C,2.8
same,The level of expressed mRNA in the presence of chemical substance/The level of expressed mRNA in the absence of chemical substance,yeast gene YPR026W,0.9
